Laboratory results published in US20050233985A1, “Rsk inhibitors and therapeutic uses thereof” (priority 2003, published 2005).
Read-outs that look alike come from different tables or passages of the source.

Assays:
[1] = system: Ha-ras-transformed NIH/3T3 cells; assay: Proliferation of transformed cells (CellTiter-Glo); type: cell-based; conditions: 50 μM PD 98059; Ha-ras-transformed or parental NIH/3T3 cells
Experimental: Cells were treated with vehicle, 50 μM SL0101, or 50 μM PD 98059 (PD 98059 is a MEK-specific inhibitor). Proliferation was measured using Promega CellTiter-Glo™ Luminescent cell viability assay.
(§1) Cell Culture. For proliferation studies cells were seeded at 2500 to 5000 cells per well in 96 well tissue culture plates in the appropriate medium as described by American Type Culture Collection. After 24 hr, the medium was replaced with medium containing compound or vehicle as indicated. Cell viability was measured at indicated time points using CellTiter-Glo™ assay reagent (Promega) according to manufacturer's protocol. For in vivo inhibition studies, cells were seeded at 2.5×10^5 cells/well in 12 well cell culture clusters. After 24 hr, the cells were serum starved for 24 hr then incubated with compound or vehicle for 3 hr prior to a 30 min PDB stimulation. Cells were lysed as previously described (J. Biol. Chem. 273, 13317-13323 (1998)). The lysates were normalized for total protein, electrophoresed and immunoblotted. For cell imaging, Ha-Ras-transformed NIH/3T3 cells were seeded on LABTEK II chamber slides (Nalge) at a density of 1×10^4 cells/well. After 24 hr, fresh medium was added the indicated compounds or vehicle. Images were taken 48 hr after treatment at a magnification of 20×.

Rsk2 = target: T1, Rsk2 (Homo sapiens, UniProt P51812, Y707A); assay: Rsk kinase ELISA with immobilized substrate and phosphospecific antibodies; type: biochemical
T1 construct: His; made in house; host or cells: Sf9 (baculovirus, Bac-to-Bac)

[2] = target: T2, Focal Adhesion Kinase (FAK) (Homo sapiens, UniProt Q05397); assay: FAK tyrosine kinase ELISA; type: biochemical; conditions: purified compounds
T2 construct: the catalytic domain of the tyrosine kinase, Focal Adhesion Kinase (FAK); His; made in house; host or cells: Sf9 (baculovirus, Bac-to-Bac)

protein kinase A (PKA) = target: T3, protein kinase A (PKA) (Homo sapiens, UniProt P17612); assay: PKA kinase ELISA; type: biochemical; conditions: purified compounds
T3 construct: made in house; host or cells: bacteria
Experimental: (§2) Kinase Assays. Glutathione-S-transferase (GST)-fusion protein (1 g) containing the sequence -[…] (SEQ ID NO: 3, for serine/threonine kinase assays) or -[…] (SEQ ID NO: 4, for tyrosine kinase assays) was adsorbed in the wells of LumiNunc 96-well polystyrene plates (MaxiSorp surface treatment). The wells were blocked with sterile 3% tryptone in phosphate buffered saline and stored at 4° C. for up to 6 months. Kinase (5 nM) in 70 μl of kinase buffer (5 mM -glycerophosphate pH 7.4, 25 mM HEPES pH 7.4, 1.5 mM DTT, 30 mM MgCl2, 0.15 M NaCl) was dispensed into each well. Compound at indicated concentrations or vehicle was added, and reactions were initiated by the addition of 30 μl of ATP for a final ATP concentration of 10 μM unless indicated otherwise. Reactions were terminated after 10 to 45 min by addition of 75 μl of 500 mM EDTA, pH 7.5. All assays measured the initial velocity of reaction. After extensive washing of wells, polyclonal phosphospecific antibody developed against the phosphopeptide and HRP-conjugated anti-rabbit antibody (211-035-109, Jackson ImmunoResearch Laboratories) were used to detect serine phosphorylation of the substrate. HRP-conjugated anti-phospho-tyrosine antibody (RC20, BD Transduction Laboratories) was used for phospho-tyrosine detection. His-tagged active Rsk and FAK were expressed in Sf9 cells and purified using NiNTA resin (Qiagen). Baculovirus was prepared using the Bac-to-Bac® baculovirus expression system (Invitrogen). PKA was bacterially expressed and activated as described (Anal. Biochem. 245, 115-122 (1997)). Active Msk1 and p70 S6 kinase was purchased from Upstate Biotechnology. Immunoprecipitation and kinase assays were performed as previously described (Poteet-Smith et al., J. Biol. Chem, 274, 22135-22138 (1999) using the immobilized GST-fusion proteins and ELISAs as above.

p70 S6K = target: T4, p70 S6K (Homo sapiens, UniProt P23443); assay: p70 S6K kinase ELISA; type: biochemical; conditions: purified compounds
T4 construct: purchased Upstate Biotechnology
Experimental: as §2

Msk1 = target: T5, Msk1 (Homo sapiens, UniProt O75582); assay: Msk1 kinase ELISA; type: biochemical; conditions: purified compounds
T5 construct: purchased Upstate Biotechnology
Experimental: as §2

MCF-7 cells = type: cell-based
Experimental: (§3) Cell viability was measured at indicated time points. Proliferation assays were conducted using CellTiter-Glo Luminescent Cell Viability Assay (Promega), performed 44 hrs after treatment for FIGS. 8A &B and at indicated points for FIG. 8C. The data are expressed relative to time 0.
as §1

MCF-10A cells = assay: Proliferation of MCF-10A cells (CellTiter-Glo); type: cell-based
Experimental: as §3, §1

[3] = system: p140 phosphorylation in MCF-7 cells; assay: PDB-induced p140 phosphorylation in MCF-7 cells (immunoblot); type: cell-based, human; conditions: 50 μM, 3 hr pre-incubation, 500 nM PDB 30 min
Experimental: Cells were treated with 500 nM PDB for 30 min prior to lysis. Protein concentration of lysates was measured and lysates were electrophoresed, transferred and immunoblotted.
as §1

[4] = in vitro, increasing concentrations of compound, read-out: IC50 for Rsk catalytic activity

T1 sequence (P51812 whole entry Y707A): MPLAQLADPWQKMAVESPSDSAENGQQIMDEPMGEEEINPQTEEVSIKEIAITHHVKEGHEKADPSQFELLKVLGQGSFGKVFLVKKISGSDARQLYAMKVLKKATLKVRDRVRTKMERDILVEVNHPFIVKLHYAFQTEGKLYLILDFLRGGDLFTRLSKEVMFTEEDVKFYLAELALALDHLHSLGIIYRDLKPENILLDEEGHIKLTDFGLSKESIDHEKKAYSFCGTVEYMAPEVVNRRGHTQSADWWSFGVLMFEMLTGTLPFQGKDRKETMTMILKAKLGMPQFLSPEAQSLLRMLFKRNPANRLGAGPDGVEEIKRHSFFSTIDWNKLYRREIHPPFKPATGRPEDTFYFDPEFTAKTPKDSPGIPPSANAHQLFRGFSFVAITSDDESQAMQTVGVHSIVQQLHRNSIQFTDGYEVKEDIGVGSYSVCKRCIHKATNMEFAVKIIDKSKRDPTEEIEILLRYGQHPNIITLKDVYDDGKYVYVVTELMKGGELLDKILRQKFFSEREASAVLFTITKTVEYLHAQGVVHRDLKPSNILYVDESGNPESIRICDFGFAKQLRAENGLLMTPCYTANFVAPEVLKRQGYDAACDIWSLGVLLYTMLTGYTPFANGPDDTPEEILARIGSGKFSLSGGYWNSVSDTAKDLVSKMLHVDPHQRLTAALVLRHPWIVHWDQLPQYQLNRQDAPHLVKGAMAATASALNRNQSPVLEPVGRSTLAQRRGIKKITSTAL
T5 sequence (O75582 whole entry, species assumed): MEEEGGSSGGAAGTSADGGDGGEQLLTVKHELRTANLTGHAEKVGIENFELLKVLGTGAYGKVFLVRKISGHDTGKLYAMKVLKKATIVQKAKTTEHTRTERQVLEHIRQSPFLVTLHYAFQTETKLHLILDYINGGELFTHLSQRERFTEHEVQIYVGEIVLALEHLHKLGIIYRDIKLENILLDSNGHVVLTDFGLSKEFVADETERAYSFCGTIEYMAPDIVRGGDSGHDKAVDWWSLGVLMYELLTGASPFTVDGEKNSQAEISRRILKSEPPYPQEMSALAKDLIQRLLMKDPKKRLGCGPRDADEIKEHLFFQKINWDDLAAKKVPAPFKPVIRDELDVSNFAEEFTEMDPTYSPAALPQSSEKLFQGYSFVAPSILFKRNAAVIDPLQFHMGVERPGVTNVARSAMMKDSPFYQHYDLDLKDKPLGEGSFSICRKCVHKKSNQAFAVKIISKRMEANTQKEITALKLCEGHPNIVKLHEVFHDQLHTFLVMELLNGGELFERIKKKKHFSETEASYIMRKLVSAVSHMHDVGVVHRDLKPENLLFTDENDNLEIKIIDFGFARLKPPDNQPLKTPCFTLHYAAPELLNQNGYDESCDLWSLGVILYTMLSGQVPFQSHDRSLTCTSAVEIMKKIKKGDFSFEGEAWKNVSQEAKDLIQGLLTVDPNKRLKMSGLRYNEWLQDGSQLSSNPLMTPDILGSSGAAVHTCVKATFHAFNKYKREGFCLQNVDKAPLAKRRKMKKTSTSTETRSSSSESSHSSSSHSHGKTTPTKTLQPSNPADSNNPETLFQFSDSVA
T4 sequence (P23443 24-525): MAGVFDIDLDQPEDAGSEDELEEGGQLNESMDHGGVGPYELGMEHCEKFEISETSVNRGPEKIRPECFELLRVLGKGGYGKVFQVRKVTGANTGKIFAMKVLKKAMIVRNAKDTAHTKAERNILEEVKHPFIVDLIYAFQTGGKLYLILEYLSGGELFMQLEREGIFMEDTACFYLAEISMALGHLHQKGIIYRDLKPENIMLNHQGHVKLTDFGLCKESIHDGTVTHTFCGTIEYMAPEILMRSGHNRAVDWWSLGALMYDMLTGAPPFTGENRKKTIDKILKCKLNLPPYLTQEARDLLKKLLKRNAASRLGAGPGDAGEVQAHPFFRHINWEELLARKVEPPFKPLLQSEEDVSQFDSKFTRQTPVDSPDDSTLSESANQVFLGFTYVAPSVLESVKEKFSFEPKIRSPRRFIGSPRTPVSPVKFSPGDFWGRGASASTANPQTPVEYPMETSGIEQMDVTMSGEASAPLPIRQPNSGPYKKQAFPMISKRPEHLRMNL
T2 sequence (Q05397 422-680 limits assumed, species assumed): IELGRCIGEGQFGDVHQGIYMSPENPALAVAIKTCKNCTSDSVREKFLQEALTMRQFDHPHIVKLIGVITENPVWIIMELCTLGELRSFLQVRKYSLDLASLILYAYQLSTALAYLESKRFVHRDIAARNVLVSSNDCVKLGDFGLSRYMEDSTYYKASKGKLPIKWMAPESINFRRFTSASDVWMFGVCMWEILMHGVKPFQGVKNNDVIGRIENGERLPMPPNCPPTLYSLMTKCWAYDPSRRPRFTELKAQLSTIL

Structure (SMILES)	IC50 (Rsk2; [4])	inhibition of FAK [2]	inhibition of Protein Kinase A (protein kinase A (PKA))	inhibition of p70 S6 kinase (p70 S6K)	inhibition of MSK (Msk1)	other results
COc1cccc(-c2cc(=O)c3ccccc3o2)c1N [PD 98059, reference compound]						influence on the proliferation rate [1]: observed only when cells were incubated in the presence of low concentrations of fetal calf serum
CC(=O)OC1C(C)OC(Oc2c(-c3ccc(O)cc3)oc3cc(O)cc(O)c3c2=O)C(O)C1O [SL0101-3, kaempferol-3-α-L-(4″-acetyl) rhamnopyranoside]	190 nM	do not inhibit	do not inhibit	do not inhibit	do not inhibit	
N#CC(=C(/N)Sc1ccccc1N)/C(C#N)=C(\N)Sc1ccccc1N [U0126, reference compound]						proliferation of MCF-7 cells (MCF-7 cells; 50 μM, 44 hrs after treatment): halted proliferation; growth of MCF-10A cells (MCF-10A cells; 50 μM, 44 hrs after treatment): halted proliferation; PDB-induced p140 phosphorylation [3]: abrogates
CC(=O)OC1C(C)OC(Oc2c(-c3ccc(O)cc3)oc3cc(O)cc(O)c3c2=O)C(OC(C)=O)C1O [SL0101-2, kaempferol 3-α-L-(2″,4″-diacetyl) rhamnopyranoside]	580 nM	do not inhibit	do not inhibit	do not inhibit	do not inhibit	
O=c1c(O)c(-c2ccc(O)cc2)oc2cc(O)cc(O)c12 [kaempferol, reference compound]						IC50 (Rsk2; in vitro kinase assay with immobilized substrate, read-out: IC50 for Rsk): 15000 nM; growth of MCF-7 cells (MCF-7 cells; concentration not given, same extent as MCF-10A): slows growth; growth of MCF-10A cells (MCF-10A cells; concentration not given, same extent as MCF-7): slows growth
Cn1cc(C2=C(c3cn(CCCSC(=N)N)c4ccccc34)C(=O)NC2=O)c2ccccc21 [Ro 318220, reference compound]						proliferation of MCF-7 cells (MCF-7 cells; 500 nM): attenuated proliferation; proliferation of MCF-10A cells (MCF-10A cells; 500 nM): attenuated proliferation
